# In ChEMBL document CHEMBL5370637, “Receptor Interacting Ser/Thr-Protein Kinase 2 as a New Therapeutic Target” (J Med Chem, 2023):
# Key:
# [1] = molecular target: T1, Receptor-interacting serine/threonine-protein kinase 2 (Homo sapiens, UniProt O43353)
# [2] = molecular target: T1, Receptor-interacting serine/threonine-protein kinase 2; assay: Inhibition of recombinant RIPK2 (unknown origin) expressed in insect cells using RBER-CHKtide as substrate assessed as inhibition of tyrosine autophosphorylation preincubated with compound for 15 mins followed by substrate addition and measured after 30 mins; parameters: species or system Insect cell
# [3] = molecular target: T1, Receptor-interacting serine/threonine-protein kinase 2; assay: Inhibition of human RIPK2 assessed as inhibition of autophosphorylation incubated for 45 to 60 mins in presence of 32P-gamma-ATP by immunoprecipitation analysis
# MAP kinase p38 = MAP kinase p38 (Homo sapiens, UniProt O15264+Q15759+Q16539+P53778); assay: Inhibition of p38 (unknown origin) by KINOMEscan assay; type: protein assay
# [4] = molecular target: T1, Receptor-interacting serine/threonine-protein kinase 2; assay: Inhibition of recombinant RIPK2 (unknown origin) using CRRKSLVGTPYWMAPE peptide as substrate assessed as inhibition of autophosphorylation incubated for 90 mins in presence of ATP by Transcreener ADP FP assay; parameters: species or system Insect cell
# [5] = Inhibition of RIPK (unknown origin) by KINOMEscan assay; parameters: species or system Homo sapiens
# [6] = molecular target: Epidermal growth factor receptor (Homo sapiens, UniProt P00533); assay: Inhibition of EGFR (unknown origin) by KINOMEscan assay
# Chain of Epidermal growth factor receptor (P00533 whole entry): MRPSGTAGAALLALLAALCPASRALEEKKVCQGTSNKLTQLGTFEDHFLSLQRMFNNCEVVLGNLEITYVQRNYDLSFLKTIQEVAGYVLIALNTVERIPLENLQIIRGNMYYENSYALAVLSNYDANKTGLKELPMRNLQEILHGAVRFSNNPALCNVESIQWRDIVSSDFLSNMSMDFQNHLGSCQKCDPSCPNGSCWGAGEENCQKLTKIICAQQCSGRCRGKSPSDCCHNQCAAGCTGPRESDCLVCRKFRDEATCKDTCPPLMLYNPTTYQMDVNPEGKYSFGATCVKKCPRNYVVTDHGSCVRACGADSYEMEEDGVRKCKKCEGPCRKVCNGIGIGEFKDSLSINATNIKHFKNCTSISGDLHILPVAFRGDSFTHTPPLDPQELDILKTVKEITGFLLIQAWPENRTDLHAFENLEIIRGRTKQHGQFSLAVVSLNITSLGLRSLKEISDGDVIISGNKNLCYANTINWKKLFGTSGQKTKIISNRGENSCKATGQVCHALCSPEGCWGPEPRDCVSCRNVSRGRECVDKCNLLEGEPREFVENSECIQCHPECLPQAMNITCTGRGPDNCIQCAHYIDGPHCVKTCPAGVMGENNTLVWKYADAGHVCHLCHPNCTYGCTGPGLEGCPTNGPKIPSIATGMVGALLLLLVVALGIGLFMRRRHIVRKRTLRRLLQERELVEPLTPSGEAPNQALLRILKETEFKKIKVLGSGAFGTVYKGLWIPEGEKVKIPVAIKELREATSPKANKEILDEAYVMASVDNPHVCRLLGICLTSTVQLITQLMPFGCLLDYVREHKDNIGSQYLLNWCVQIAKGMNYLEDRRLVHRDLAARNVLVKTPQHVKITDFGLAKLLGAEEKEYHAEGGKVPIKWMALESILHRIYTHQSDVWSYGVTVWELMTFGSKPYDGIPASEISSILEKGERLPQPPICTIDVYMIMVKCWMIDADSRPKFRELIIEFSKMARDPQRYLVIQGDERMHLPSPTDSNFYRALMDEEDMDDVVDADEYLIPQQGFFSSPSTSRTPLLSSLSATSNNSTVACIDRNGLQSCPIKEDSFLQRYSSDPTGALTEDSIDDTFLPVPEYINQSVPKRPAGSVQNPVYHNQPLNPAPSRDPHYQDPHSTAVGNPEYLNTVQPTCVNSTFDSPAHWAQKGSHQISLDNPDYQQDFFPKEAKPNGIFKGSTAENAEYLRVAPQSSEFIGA
# [7] = molecular target: T1, Receptor-interacting serine/threonine-protein kinase 2; assay: Inhibition of RIPK2 (unknown origin)
# [8] = Induction of apoptosis in human GBM1 cells incubated for 48 hrs by immunofluorescent analysis; type: functional, cell-based; details: GBM1, 48 h
# T1 sequence (O43353 whole entry): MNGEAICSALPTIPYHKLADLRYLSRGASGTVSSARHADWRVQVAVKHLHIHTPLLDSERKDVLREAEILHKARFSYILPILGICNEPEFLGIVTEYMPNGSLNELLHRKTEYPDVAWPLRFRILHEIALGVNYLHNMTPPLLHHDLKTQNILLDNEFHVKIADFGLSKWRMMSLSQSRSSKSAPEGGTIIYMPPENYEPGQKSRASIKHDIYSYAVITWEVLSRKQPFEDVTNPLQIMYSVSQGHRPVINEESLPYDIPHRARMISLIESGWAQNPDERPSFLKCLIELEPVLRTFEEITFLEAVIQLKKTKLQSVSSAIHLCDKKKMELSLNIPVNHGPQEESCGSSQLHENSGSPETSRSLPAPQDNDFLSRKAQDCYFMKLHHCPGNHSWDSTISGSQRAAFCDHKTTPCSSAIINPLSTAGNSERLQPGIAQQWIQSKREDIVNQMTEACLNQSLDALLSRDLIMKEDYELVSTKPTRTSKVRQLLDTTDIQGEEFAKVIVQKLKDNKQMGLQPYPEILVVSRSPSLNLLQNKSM
smiles,measurement,setting,value
O=[N+]([O-])c1ccc(-c2nc(-c3ccncc3)c(-c3ccc(F)cc3)[nH]2)cc1 [PD-169316],IC50,[1],70 nM
c1cc2cc(n1)NCCOCCNc1ccn3ncc-2c3n1,IC50,[2],14.1 nM
Clc1cc2cc(c1)-c1cnn3ccc(nc13)NCCOCCO2,IC50,[2],5.3 nM
Cc1ccc(C(=O)Nc2cccc(-c3nccn3C)c2)cc1NC(=O)c1ccccc1,IC50,[3],10 nM
Cc1ccc(-c2nn(C(C)(C)CNC(=O)c3ccncc3)c3ncnc(N)c23)cc1,IC50,MAP kinase p38,> 10000 nM
same,IC50,[4],134 nM
same,IC50,[5],> 10000 nM
same,IC50,[6],> 10000 nM
N=C(N)NCCC[C@@H]1NC(=O)/C(=C/c2c[nH]c3cc(Br)ccc23)NC1=O [BARETTIN],IC50,[7],8000 nM
Nc1nccc(-c2c(-c3ccc(F)cc3)ncn2C2CCNCC2)n1 [SB-220025],IC50,[1],700 nM
Cc1n(Cc2ccc(F)cc2)c2c([n+]1Cc1ccccc1)C(=O)c1ccccc1C2=O,EC50,[8],68 nM
